Entries after “also recorded” stand apart in the source; their conditions may differ. Square brackets hold non-standard residues; d marks the D form. Ends that are not written are not given here. Phe(4-NH2) = Nc1ccc(C[C@H](N)C(=O)O)cc1; Nle = CCCC[C@H](N)C(=O)O; Ac5c = NC1(C(=O)O)CCCC1
Assays:
Normal human fibroblasts = assay: Contraction of collagen lattices by human fibroblasts; assay type: cell-based; details: for Diameter of Lattice, Day 1 / Diameter of Lattice, Day 2 / Diameter of Lattice, Day 3 / Diameter of Lattice, Day 4: 10 μg/ml peptide, 1×10^5 fibroblasts/well; for Diameter of Lattice, Day 1: Day 1 of culture; for Diameter of Lattice, Day 2: Day 2 of culture; for Diameter of Lattice, Day 3: Day 3 of culture; for Diameter of Lattice, Day 4: Day 4 of culture
Protocol: Normal human fibroblasts were purchased from Clonetics (San Diego, Calif.) and were thawed and cultured in Fibroblast Growth Medium (Clonetics) according to the manufacturer's instructions. Once the cells reached confluence in the flask, they were harvested by trypsinization and utilized for the studies described below.
Rat tails were harvested from 200 gram female rats and frozen until use. The frozen rat tails were thawed in 70% (vol/vol) ethanol for 20 minutes. The tendon bundles were excised in 70% ethanol in a vertical laminar flow hood. The individual tendons were pulled out of the tendon sheath, minced, and placed in dilute acetic acid (1:1000) using 250 ml per tail. The mixture was incubated at 4° C. for 48 hours, at which point the minced tendons had swelled to the volume of the dilute acetic acid. The viscous mixture was centrifuged at 23,000 rpm in a Beckman L ultracentrifuge for 1 hour. The supernatant was harvested and further refined. This crude collagen solution was mixed with 0.1M NaOH in a 6:1 ratio to neutralize the acetic acid and precipitate the collagen. The mixture was then centrifuged at 1500 rpm for 5 minutes. The supernatant was discarded and an equal volume of fresh acetic acid (1:1000) was introduced to resolubilize the collagen over 48 hours. This solution was stored at 4° C. as refined collagen. The protein concentration was determined by BCA assay.
The collagen lattices for the assessment of contraction by fibroblasts and angiotensin II were formed in 60 mm Falcon bacteriological dishes. Each dish contained 1 ml 4×DMEM High glucose medium, 1 ml fetal calf serum, 0.25 ml NaOH, 1.5 ml of 500 μg/ml refined collagen and 1 ml of fibroblasts in Fibroblast Growth Medium (7.5×10^4 cells/ml to 7.5×10^5 cells/ml). In these cultures, various concentrations of AII (1 to 10 μg/ml) were added to assess the effect of AII on the formation of an artificial dermis. The cultures were placed in an incubator at 37° C. in an atmosphere of 5% CO2 in air. At various times after culture initiation, the diameter of the formed lattice was measured. As there are slight differences in diameter at various points (ie: the lattices were not always perfectly round), the average of the largest and the smallest diameters were taken.
Similar experiments were conducted using AII analogues and fragments, except that ten μg/ml of each of the peptides shown in Table 3 were added to 1×10^5 of fibroblasts/well. At various times after culture initiation, the diameter of the formed lattice was measured.

Human keratinocytes = assay: Keratinocyte proliferation on Integra artificial dermis; assay type: cell-based; details: 10 μg/ml peptide, 1×10^5 cells/ml
Description: Integra, a commercially available artificial dermis of chondrotin sulfate and collagen, was obtained (Integra Life Sciences) and used in culture as a matrix for keratinocyte growth. The Integras was washed free of preservative by a sterile saline for injection and cut to size to fit snugly into the bottom of 24 well plates. After trimming, the pieces of Integra were placed silicone-side down into the wells.
Human keratinocytes were purchased from Clonetics and thawed and cultured as described in Example 3, except that they were grown in Keratinocyte Growth Medium, as per the manufacturer's instructions. Once the cells reached confluence in the flask, they were detached from the tissue culture flasks by trypsinization. The cells were resuspended at 1×10^5 cells/ml in Keratinocyte Growth Medium or Keratinocyte Basal Medium with or without 10 μg/ml of various AII-related peptides (AII, AII(1-7), Pro3 AII(1-7), Ala4-AIII, and Pro3-AII; see Table 5 below). One ml of these cell preparations was added to wells of the 24 well plates containing Integra membrane. The cultures were placed in an incubator at 37° C. in an atmosphere of 5% CO2 in air. At various times after initiation of the cultures, the number of keratinocytes on the surface of the Integra membrane in 5 100×fields was assessed under phase contrast microscopy.

[1] = test system: living skin equivalent (LSE) epidermis; assay: Epidermal thickness of living skin equivalent (LSE) presoaked in AII and grafted on nude mice; assay type: in vivo, Swiss nude mice
Description: Twenty three male Swiss nude mice (22-24 grams) were purchased from Taconic Laboratories and quarantined at least two days prior to surgery, and divided into 4 groups of mice. The mice were anesthetized with an intramuscular injection of Ketamine (ketaset; Phoenix Pharmaceuticals, Inc.) and Rompun (xylazine; Phoenix Pharmaceuticals, Inc.) and a 1 cm×1 cm full thickness skin excision was made on their dorsal surface. Each group received an Apligraph LSE (Organogenesis; Canton, Mass.) that had been soaked for 10 minutes in concentrations of AII ranging from 0 to 1.0 mg/ml. The LSE was placed in the defect and trimmed with microscissors so that no gap was observed between the edges of the mouse skin and the LSE. After the graft was placed, the dorsal surface of the mouse was covered by petroleum embedded gauze (Dermacea) followed by two adhesive bandages (Baxter). After recovery from anesthesia, the mice were returned to their individual cages and observed daily until euthenasia. The mice received intramuscular analgesia for the first three days after surgery. No mouse lost their bandage prior to bandage removal on day 7 and day 23. […]
[…] The thickest part of each graft was measured and the thickness of the graft at one-half of a 10×field to each side of the thickest portion was also measured.

[2] = test system: keratinocytes from explants of human skin; assay: Outgrowth of keratinocytes from explants of human skin on Dermagraft; assay type: cell-based; details: AII 1 or 10 μg/ml, 7 days
Description: Human skin explants were obtained from surgery of split thickness skin grafts and cut by scalpel in to 2 mm×2 mm squares. Ten explants per condition were placed dermal side down on frozen and thawed Dermagraft (Advanced Tissue Sciences, San Diego, Calif.) and cultured at the air-liquid interface using Keratinocyte-SFM medium (Gibco BRL, Grand Island, N.Y.) supplemented with epidermal growth factor and bovine pituitary extract according to the manufacturer's instructions. The culture medium contained penicillin (50 U/ml) and streptomycin (50 μg/ml) and extra calcium chloride to a final concentration of 1 mM. Angiotensin II was added to the culture medium at a final concentration of 1 or 10 μg/ml. The cultures were maintained at 37° C. with 5% CO2 and medium with and without AII and the medium was changed twice weekly. After 7 days, the cultures were fixed in formalin for one hour, stained with hematoxylin and washed in tap water. The dermal replacements appeared dark purple except for the area where the keratinocytes exclude the stain. Cultures were photographed using a dissection microscope at a fixed magnification and the area of outgrowth was quantified by gravimetric planimetry.

AT2 receptor = details: cited from earlier work
[3] = Unspecified test of effectiveness of AII fragments; details: test not specified

Substance: --RVYnLHPF (RVY[Nle]HPF) [NorLeu4 AIII]
- Diameter of Lattice, Day 1 (Normal human fibroblasts): 3.4 cm
- Diameter of Lattice, Day 2 (Normal human fibroblasts): 2.0 cm
- Diameter of Lattice, Day 3 (Normal human fibroblasts): 1.6 cm
- Diameter of Lattice, Day 4 (Normal human fibroblasts): 1.5 cm

Substance: Asp-Arg-Val-Tyr-Ile-His-Pro (DRVYIHP) [AII(1-7)]
- Diameter of Lattice, Day 1 (Normal human fibroblasts): 3.4 cm
- Diameter of Lattice, Day 2 (Normal human fibroblasts): 2.4 cm
- Diameter of Lattice, Day 3 (Normal human fibroblasts): 2.0 cm
- Diameter of Lattice, Day 4 (Normal human fibroblasts): 1.7 cm
- proliferation of keratinocytes (number on the surface of the Integra membrane) (Human keratinocytes): increased the proliferation of keratinocytes

Substance: Asp-Arg-Val-Tyr-Ile-His-Pro-Phe (DRVYIHPF) [AII, known pressor agent, commercially available, reference compound]
- vessels attached to underside of graft ([1]; day 7, one of the AII-treated grafts): numerous vessels attached to its underside
- epidermal thickness ([1]; day 23 post-grafting, LSE soaked 10 minutes in AII 0 to 1.0 mg/ml): increased in a concentration-dependent manner
- area of the artificial dermis covered with keratinocytes (outgrowth) [2]: increased the area of the artificial dermis covered with keratinocytes
- Diameter of Lattice, Day 1 (Normal human fibroblasts): 3.3 cm
- Diameter of Lattice, Day 2 (Normal human fibroblasts): 2.4 cm
- Diameter of Lattice, Day 3 (Normal human fibroblasts): 1.6 cm
- Diameter of Lattice, Day 4 (Normal human fibroblasts): 1.4 cm
- contraction of collagen lattices (Normal human fibroblasts; AII 1 to 10 μg/ml, fibroblasts 7.5×10^4 to 7.5×10^5 cells/ml): accelerated the contraction of collagen lattices
- proliferation of keratinocytes (number on the surface of the Integra membrane) (Human keratinocytes): increased the proliferation of keratinocytes
- affinity for AT2 than AT1 (AT2 receptor; AT2 versus AT1): 100 times

Substance: Asp-Arg-Val-Tyr-Ile-Xaa-Pro-Phe (DRVYI[Phe(4-NH2)]PF) [(p-NH2-Phe)6-AII]
- binding characteristics (AT2 receptor; experimental models tested, compared with AT2 antagonists): comparable to AT2 antagonists

Substance: DR(Acpc)YIHPF (DR[Ac5c]YIHPF) [Acpc3 AII]
- Diameter of Lattice, Day 1 (Normal human fibroblasts): 3.5 cm
- Diameter of Lattice, Day 2 (Normal human fibroblasts): 2.0 cm
- Diameter of Lattice, Day 3 (Normal human fibroblasts): 1.6 cm
- Diameter of Lattice, Day 4 (Normal human fibroblasts): 1.4 cm

Substance: DRPYIHP [Pro3 AII(1-7)]
- proliferation of keratinocytes (number on the surface of the Integra membrane) (Human keratinocytes): increased the proliferation of keratinocytes

Substance: DRPYIHPF [Pro3-AII]
- proliferation of keratinocytes (number on the surface of the Integra membrane) (Human keratinocytes): increased the proliferation of keratinocytes

Substance: DRVYIHPI [Ile8 AII]
- Diameter of Lattice, Day 1 (Normal human fibroblasts): 3.4 cm
- Diameter of Lattice, Day 2 (Normal human fibroblasts): 2.4 cm
- Diameter of Lattice, Day 3 (Normal human fibroblasts): 1.7 cm
- Diameter of Lattice, Day 4 (Normal human fibroblasts): 1.4 cm

Substance: GRVYIHPF [Gly1 AII]
- Diameter of Lattice, Day 1 (Normal human fibroblasts): 3.4 cm
- Diameter of Lattice, Day 2 (Normal human fibroblasts): 2.2 cm
- Diameter of Lattice, Day 3 (Normal human fibroblasts): 1.6 cm
- Diameter of Lattice, Day 4 (Normal human fibroblasts): 1.5 cm

Substance: His-Pro-Phe (HPF) [AII(6-8)]
- effectiveness [3]: not to be effective

Substance: RVYAHPF [Ala4-AIII]
- Diameter of Lattice, Day 1 (Normal human fibroblasts): 3.4 cm
- Diameter of Lattice, Day 2 (Normal human fibroblasts): 2.7 cm
- Diameter of Lattice, Day 3 (Normal human fibroblasts): 1.9 cm
- Diameter of Lattice, Day 4 (Normal human fibroblasts): 1.6 cm
- proliferation of keratinocytes (number on the surface of the Integra membrane) (Human keratinocytes): increased the proliferation of keratinocytes

Substance: Tyr-Ile-His-Pro-Phe (YIHPF) [AII(4-8)]
- effectiveness [3]: not to be effective; also recorded: ineffective in repeated tests

Reference: patent publication US6498138B1, “Method of promoting production of living tissue equivalents” (University of Southern California, priority 1998, dated 2002)
